Data published in US20180178031A1, “DENTAL DEVICE AND PHOTODYNAMIC THERAPEUTIC SYSTEM USING SAME” (priority 2016, published 2018).

Legend:
[1] = system: gram negative (G (−)) bacteria (Aggregatibacter actinomycetemcomitans, Fusobacterium nucleatum, Porphyromonas gingivalis); test: photodynamic therapy bacterial disinfection assay in vitro, G (−) bacteria; assay type: cell-based; conditions: photosensitizer plus infrared laser ray 808 nanometers, irradiating about 5 minutes, in vitro (FIG. 8)
Text: (§1) One group assay represents the different bacterial disinfection by using the photodynamic therapy method in vitro with a specific irradiated wavelength of the light, and the other group assay represents the different bacterial disinfection by using the photodynamic therapy method in vitro with a specific compound X and the specific irradiated wavelength of the light. […] The light is infrared laser ray. The specific irradiated wavelength of the infrared laser ray of is 808 nanometers. The specific compound X is a photosensitizer. The photosensitizer is the indocyanine green dye. The period of irradiating the bacteria is about 5 minutes. The bacteria include gram positive (G (+)) bacteria and gram negative (G (−)) bacteria. The G (+) bacteria include a Streptococcus mutans (S. mutans) and a Streptococcus sobrinus (S. sobrinus). The G (−) bacteria include an Aggregatibacter actinomycetemcomitans (A. actinomycetemcomitans), a Fusobacterium nucleatum (F. nucleatum), and a Porphyromonas gingivalis (P. gingivalis).

[2] = system: gram positive (G (+)) bacteria (Streptococcus mutans, Streptococcus sobrinus); test: photodynamic therapy bacterial disinfection assay in vitro, G (+) bacteria; assay type: cell-based; conditions: photosensitizer plus infrared laser ray 808 nanometers, irradiating about 5 minutes, in vitro (FIG. 8)
Text: as §1

Q: Which “percentage growth rate of the bacteria” value [1] does the source give for `CC1(C)C(/C=C/C=C/C=C/C=C2\N(CCCCS(=O)(=O)O)c3ccc4ccccc4c3C2(C)C)=[N+](CCCCS(=O)(=O)[O-])c2ccc3ccccc3c21` [compound X, indocyanine green] here?
A: less than 20%

Q: And the “percentage growth rate of the bacteria” value [2]?
A: zero
